Measurements as given in US7405228B2, “Antibacterial cyano-(substituted)-methylenepiperidinophenyl oxazolidinones targeting multiple ribonucleoprotein sites” (Wockhardt Limited, priority 2002, dated 2008).
Values after ≈ are worked out from the molar mass of the structure shown. Read-outs that look alike come from different tables or passages of the source.

Legend:
[1] = system: linezolid-resistant S. pneumoniae; conditions: Adis R&D Insight report Document 013296; cited from earlier work
SPN 49619 = test: MIC determination, linezolid sensitive SPN 49619; type: cell-based; conditions: Streptococcus pneumoniae; linezolid sensitive strain, Table 3
MRSA 032 = test: MIC determination, linezolid sensitive MRSA 032 (MRSA-32); type: cell-based; conditions: Staphylococcus aureus
Method: (§1) Infecting doses of organisms given by intraperitoneal route in 5% hog gastric mucin were 10^3-10^4 CFU (colony forming units)/animal for SPN 6303 and 10^8 CFU/animal for MRSA-32. In case of MRSA-32, Linezolid was administered by oral route, 1 and 4 h post infection, BID (twice a day) for 1 day and for SPN 6303 BID for 2 days. […] MICs of Methicillin Resistant Staphylococcus aureus-32 Linezolid resistant (MRSA-32 LNZR), S. pneumoniae 744 Linezolid resistant (SPN 744 LNZR) and parent Linezolid sensitive strains MRSA-32 and SPN 6303 were determined for Linezolid by NCCLS agar dilution method.
(§2) Cultures were further diluted 1:10 in Mueller Hinton broth. Using Denley's mutipoint inoculator, 10^4 cells were deposited on Mueller Hinton agar (Difco) containing range of 2 fold dilutions of test compounds. […] MIC is defined as minimum drug concentration that inhibits test organisms. For determining MIC of test compounds against Streptococcus pneumoniae, Mueller Hinton agar containing 5% sheep blood was employed.

[2] = system: Enterococcus faecalis 416 strain; test: Killing effect study (bactericidal vs bacteriostatic activity); type: cell-based; conditions: initial count 10^6 CFU/ml; for Final Count (112 h): E. faecalis 416, 5 mcg/ml compound, Table 4
Method: The initial inoculum was adjusted to 10^6 CFU (colony forming units) per ml. The flasks were kept on shaker in close cabinet at 35° C. Aliquots were drawn at 112 hours and cell count was determined to assess the extent of loss in viability.

E. faecium 367 LNZR = test: MIC determination, linezolid resistant E. faecium 367 LNZR; type: cell-based; conditions: Enterococcus faecium
Method: (§3) E. faecium ATCC 19434 strain at a cell density of 10^6/ml was inoculated in Mueller Hinton broth medium containing Linezolid at a concentration of 5 and 7.5 mcg/ml. The stationary culture was incubated at 37° C. and inspected at every 24 hours to assess the formation of turbidity due to the onset of bacterial growth. […] A 50 microliter sample of turbid flask was plated on Mueller Hinton agar medium incorporated with linezolid at 7.5 mcg/ml. The agar plates were incubated for 48 hours at 37° C. for the formation of discrete colonies of linezolid-resistant strain of E. faecium (E. faecium 367 LNZR). MICs of resistant mutant E. faecium 367 LNZR and parent strain E. faecium ATCC 19434 were determined for linezolid by NCCLS method.
as §2

S. aureus MRSA-32 LNZR = test: MIC determination, linezolid resistant S. aureus MRSA-32 LNZR; type: cell-based; conditions: Staphylococcus aureus
Method: as §1, §2

SPN 744 LNZR [3] = test: MIC determination, linezolid resistant SPN 744 LNZR; type: cell-based; conditions: Streptococcus pneumoniae
Method: as §1, §2

[4] = system: Enterococcus faecalis 416 strain; test: Propensity to resistance development (resistant colonies per plate); type: cell-based; conditions: E. faecalis 416 at 10^8 CFU, compound concentration 5 mcg/ml, 48 hours at 35° C.
Method: Enterococcus faecalis 416 strain at 10^8 CFU density level was spirally plated on Mueller Hinton agar containing 5 mcg/ml each of linezolid and representative compound of the invention. Plates were incubated at 35° C. for 48 hours and number of resistant colonies developed in presence of respective compounds were counted by automated counter.

[5] = system: Enterococcus faecalis 416; test: Mutant Prevention Concentration (MPC) determination; type: cell-based; set-up: unit not given here; conditions: E. faecalis 416, 10^9 CFU/plate, TSA, 48 hours at 35° C.
Method: Clinical isolate Enterococcus faecalis 416 was spirally plated on Tryptic Soya agar (TSA) plate containing various 2 fold dilutions each of a representative compound of the invention and Linezolid so as to give 10^9 CFU/plate. After incubation at 35° C. for 48 hours, the CFU on each plate was determined. MPC is defined as minimum concentration of drug that prevents mutant colonies on respective antibiotic containing plate.

S. aureus Smith = test: MIC determination, S. aureus Smith; type: cell-based; conditions: Staphylococcus aureus, read-out: Linezolid MIC
MRSA 032 LR = test: MIC determination, linezolid-resistant mutant MRSA 032 LR; type: cell-based; conditions: Staphylococcus aureus, read-out: Linezolid MIC
S. pneumoniae ATCC 6303 = test: MIC determination, linezolid sensitive S. pneumoniae ATCC 6303 (SPN 6303); type: cell-based; conditions: Streptococcus pneumoniae, ATCC6303
Method: as §1

S. aureus Smith LR = test: MIC determination, linezolid-resistant mutant S. aureus Smith LR; type: cell-based; conditions: Staphylococcus aureus, read-out: Linezolid MIC
[6] = system: S. pneumoniae ATCC 6303 LR; test: MIC determination, linezolid-resistant mutant S. pneumoniae ATCC 6303 LR; type: cell-based; conditions: Streptococcus pneumoniae, ATCC6303, read-out: Linezolid MIC
SPN 6303 = test: ED50 in mouse systemic infection model, SPN 6303; type: in vivo; conditions: SPN 6303 parent strain
Method: as §1

SPN 744 LNZR [7] = test: ED50 in mouse systemic infection model, SPN 744 LNZR; type: in vivo
E. faecium ATCC 19434 = test: MIC determination, parent strain E. faecium ATCC 19434; type: cell-based; conditions: Enterococcus faecium, ATCC19434; Linezolid sensitive E. faecium ATCC 19434, NCCLS method
Method: as §3

MRSA-32 = test: ED50 in mouse systemic infection model, MRSA-32; type: in vivo; conditions: MRSA-32 parent strain
Method: as §1

MRSA-32 LNZR = test: ED50 in mouse systemic infection model, MRSA-32 LNZR; type: in vivo
[8] = read-out: MIC E. faecium 367 LNZR
[9] = 24 h, read-out: MIC MRSA 32 LNZR

| SMILES | MIC (SPN 49619) [µg/mL] | MIC (MRSA 032; read-out: MIC MRSA 32) [µg/mL] | Final Count (112 h) [2] | MIC (E. faecium 367 LNZR; [8]) [µg/mL] | MIC (S. aureus MRSA-32 LNZR; [9]) [µg/mL] | MIC (SPN 744 LNZR [3]; read-out: MIC SPN744 LNZR) [µg/mL] | No. of colonies/plate [4] | MPC [5] | also measured |
| --- | --- | --- | --- | --- | --- | --- | --- | --- | --- |
| O=C([C@@H](O)CO)N1CC=C(c2c(F)cc(N3C[C@H](COc4ccon4)OC3=O)cc2F)CC1 [AZD 2563] |  |  |  |  |  |  |  |  | activity against linezolid-resistant S. pneumoniae [1]: ineffective |
| CC(=O)NC[C@H]1CN(c2ccc(N3CCC(=CC#N)CC3)cc2)C(=O)O1 [Example 3, (S)-N-{3-[4-(4-cyanomethylidene-piperidin-1-yl)-phenyl]-2-oxo-oxazolidin-5-ylmethyl}-acetamide] | 0.8 (≈ 2.26 µM) | 1.56 (≈ 4.4 µM) | 10^6 CFU/ml | 25 (≈ 70.5 µM) | 25 (≈ 70.5 µM) | 12.5 (≈ 35.3 µM) | 0 | 12.5 |  |
| CC(=O)NC[C@H]1CN(c2ccc(N3CCC(=CC#N)CC3)c(F)c2)C(=O)O1 [Example 9, (S)-N-{3-[4-(4-cyanomethylidene-piperidin-1-yl)-3-fluorophenyl]-2-oxo-oxazolidin-5-ylmethyl}-acetamide] |  |  | 10^3 CFU/ml |  |  |  | 0 | 6.25 |  |
| N#CC=C1CCN(c2ccc(N3C[C@H](CNC(=O)C(Cl)Cl)OC3=O)cc2F)CC1 [Example 32, (S)-N-{3-[4-(4-cyanomethylidene-piperidin-1-yl)-3-fluorophenyl]-2-oxo-oxazolidin-5-ylmethyl}-dichloroacetamide] | 0.8 (≈ 1.81 µM) | 0.8 (≈ 1.81 µM) |  | 6.25 (≈ 14.2 µM) | 12.5 (≈ 28.3 µM) | 6.25 (≈ 14.2 µM) | 0 | 6.25 |  |
| COC(=S)NC[C@H]1CN(c2ccc(N3CCC(=CC#N)CC3)c(F)c2)C(=O)O1 [Example 46, (S)-N-{3-[4-(4-cyanomethylidene-piperidin-1-yl)-3-fluorophenyl]-2-oxo-oxazolidin-5-ylmethyl}-methylthiocarbamate] | 0.2 (≈ 0.494 µM) | 0.2 (≈ 0.494 µM) | <10^2 CFU/ml | 1.56 (≈ 3.86 µM) | 6.25 (≈ 15.5 µM) | 6.25 (≈ 15.5 µM) | 0 | 1.56 |  |
| N#CC=C1CCN(c2ccc(N3C[C@H](CNC(N)=S)OC3=O)cc2F)CC1 [Example 51, (S)-N-{3-[4-(4-cyanomethylidene-piperidin-1-yl)-3-fluorophenyl]-2-oxo-oxazolidin-5-ylmethyl}-thiocarbamide] | 0.2 (≈ 0.514 µM) | 0.4 (≈ 1.03 µM) | <10^2 CFU/ml | 1.56 (≈ 4.01 µM) | 3.12 (≈ 8.01 µM) | 3.12 (≈ 8.01 µM) | 0 | 1.56 |  |
| C#CCC(C#N)=C1CCN(c2ccc(N3C[C@H](CNC(C)=O)OC3=O)cc2F)CC1 [Example 96, (S)-N-{3-[4-(4-(1-cyano-3-yne-butylidene)-piperidin-1-yl)-3-fluorophenyl]-2-oxo-oxazolidin-5-ylmethyl}-acetamide] | 0.8 (≈ 1.95 µM) | 0.8 (≈ 1.95 µM) | <10^2 CFU/ml | 3.12 (≈ 7.6 µM) | 12.5 (≈ 30.5 µM) | 6.25 (≈ 15.2 µM) | 0 | 6.25 |  |
| CC(=S)NC[C@H]1CN(c2ccc(N3CC=C(CC#N)CC3)c(F)c2)C(=O)O1 [Example 160, (S)-N-{3-[4-(4-cyanomethyl-3,4-dehydropiperidin-1-yl)-3-fluorophenyl]-2-oxo-oxazolidin-5-ylmethyl}-thioacetamide] | 0.2 (≈ 0.515 µM) | 0.4 (≈ 1.03 µM) | <10^2 CFU/ml |  | 6.25 (≈ 16.1 µM) | 3.12 (≈ 8.03 µM) | 0 |  |  |
| CC(=O)NC[C@H]1CN(c2ccc(N3CCOCC3)c(F)c2)C(=O)O1 [Linezolid, reference compound] | 0.8 (≈ 2.37 µM) | 1.56 (≈ 4.62 µM) | 10^8 CFU/ml | > 25 | > 25 | 25 (≈ 74.1 µM) | 1.2 × 10^2 | 12.5 | MIC (S. aureus Smith): 1.56 µg/mL (≈ 4.62 µM); MIC (MRSA 032 LR): 25 µg/mL (≈ 74.1 µM); MIC (S. pneumoniae ATCC 6303; S. pneumoniae ATCC 6303, Table 1, read-out: Linezolid MIC): 0.8 µg/mL (≈ 2.37 µM); MIC (S. pneumoniae ATCC 6303; parent Linezolid sensitive SPN 6303, NCCLS agar dilution method, read-out: MIC): 0.8 µg/mL (≈ 2.37 µM); MIC (S. aureus Smith LR): 50 µg/mL (≈ 148 µM); MIC (MRSA 032): 1.56 µg/mL (≈ 4.62 µM); MIC (MRSA 032; read-out: Linezolid MIC): 1.56 µg/mL (≈ 4.62 µM); final count after killing effect study ([2]; E. faecalis 416, 5 mcg/ml): 10^9 CFU/ml; MIC (E. faecium 367 LNZR): 25 µg/mL (≈ 74.1 µM); MIC (S. aureus MRSA-32 LNZR): 50 µg/mL (≈ 148 µM); MIC [6]: 25 µg/mL (≈ 74.1 µM); ED50 (SPN 6303): 75 mg/kg; ED50 (SPN 744 LNZR [7]): > 200 mg/kg; MIC (SPN 744 LNZR [3]): 25 µg/mL (≈ 74.1 µM); MIC (E. faecium ATCC 19434): 1.56 µg/mL (≈ 4.62 µM); ED50 (MRSA-32): 5 mg/kg; ED50 (MRSA-32 LNZR): 100 mg/kg |
